Values after ≈ are worked out from the molar mass of the structure shown. One block for each compound: values may come before it.
Legend:
[1] = aqueous solubility as stated for drugs and organic acids
[2] = physchem

- solubility ([2]; pH 3.7, aqueous buffer): 2 µg/mL (≈ 6.24 µM)
- solubility ([2]; pH 7.4, aqueous buffer): 200 µg/mL (≈ 624 µM)
Compound: NC(=O)N1C(=O)/C(=C(\O)c2cccs2)c2cc(Cl)ccc21 [Drug 7, Tenidap]

- solubility ([1]; model fasted duodenal solution): 3 µg/mL (≈ 7.26 µM)
Compound: O=C1Cc2cc(CCN3CCN(c4nsc5ccccc45)CC3)c(Cl)cc2N1 [Drug 5]

- solubility ([1]; pH 6, aqueous buffer): ~20 µg/mL (≈ 42.1 µM)
Compound: CCCc1nn(C)c2c(=O)[nH]c(-c3cc(S(=O)(=O)N4CCN(C)CC4)ccc3OCC)nc12 [Drug 1, 1-[4-ethoxy-3-(6,7-dihydro-1-methyl-7-oxo-3-propyl-1H-pyrazolo[4,3-d]pyrimidin-5-yl)phenylsulphony]-4-methylpiperazine]

Continued, compound first:

Compound: 4-[3-[4-(2-methylimidazol-1-yl)phenylthio]phenyl]-3,4,5,6-tetrahydro-2H-pyran-4-carboxamide hemifumarate [Drug 3]
- solubility ([1]; pH 4): 3.7 mgA/mL

Compound: CC(C(=O)O)c1ccc2c(c1)[nH]c1ccc(Cl)cc12 (stereo not shown) [Drug 6, carprofen]
- solubility ([1]; pH 5.9, aqueous buffer): ~15 µg/mL (≈ 54.8 µM)

Compound: O=C(N[C@@H](Cc1ccccc1)[C@@H](O)C(=O)N1C[C@@H](O)[C@@H](O)C1)c1cc2cc(Cl)ccc2[nH]1 [Drug 4, 5-chloro-1H-indole-2-carboxylic acid [(1S)-benzyl-3-((3R,4S)-dihydroxypyrrolidin-1-yl-)-(2R)-hydroxy-3-oxypropyl]amide]
- water solubility ([1]; water): 80 µg/mL (≈ 175 µM)
